{"source": "paper PMC12372887", "about": "“Mechanism and cellular actions of the potent AMPK inhibitor BAY-3827” (Science Advances, 2025)", "assay_in_all_cases": "Kinase panel (140 human kinases)", "type_in_all_cases": "biochemical", "key": {"Aurora A": {"target": "Aurora A (Homo sapiens, UniProt O14965)", "experimental": "(§1) BAY-3827 and BAY-974 were assayed against a 140-human kinase panel at 0.1 μM and at 1 μM (BAY-3827) concentration in a [γ-^33P] ATP–based radioactive filter binding assay ([31], [65]) setup in duplicates with reported mean remaining kinase percentage activity alongside SD (table S1). Assays were performed at either 5, 20, or 50 μM ATP to be at or below the Michaelis constant for ATP for each enzyme and conducted by the services offered by the International Centre for Kinase Profiling at MRC Protein Phosphorylation and Ubiquitylation Unit, University of Dundee (https://www.kinase-screen.mrc.ac.uk/services/premier-screen)."}, "BRSK1": {"target": "BRSK1 (Homo sapiens, UniProt Q8TDC3)", "sequence (Q8TDC3 whole entry)": "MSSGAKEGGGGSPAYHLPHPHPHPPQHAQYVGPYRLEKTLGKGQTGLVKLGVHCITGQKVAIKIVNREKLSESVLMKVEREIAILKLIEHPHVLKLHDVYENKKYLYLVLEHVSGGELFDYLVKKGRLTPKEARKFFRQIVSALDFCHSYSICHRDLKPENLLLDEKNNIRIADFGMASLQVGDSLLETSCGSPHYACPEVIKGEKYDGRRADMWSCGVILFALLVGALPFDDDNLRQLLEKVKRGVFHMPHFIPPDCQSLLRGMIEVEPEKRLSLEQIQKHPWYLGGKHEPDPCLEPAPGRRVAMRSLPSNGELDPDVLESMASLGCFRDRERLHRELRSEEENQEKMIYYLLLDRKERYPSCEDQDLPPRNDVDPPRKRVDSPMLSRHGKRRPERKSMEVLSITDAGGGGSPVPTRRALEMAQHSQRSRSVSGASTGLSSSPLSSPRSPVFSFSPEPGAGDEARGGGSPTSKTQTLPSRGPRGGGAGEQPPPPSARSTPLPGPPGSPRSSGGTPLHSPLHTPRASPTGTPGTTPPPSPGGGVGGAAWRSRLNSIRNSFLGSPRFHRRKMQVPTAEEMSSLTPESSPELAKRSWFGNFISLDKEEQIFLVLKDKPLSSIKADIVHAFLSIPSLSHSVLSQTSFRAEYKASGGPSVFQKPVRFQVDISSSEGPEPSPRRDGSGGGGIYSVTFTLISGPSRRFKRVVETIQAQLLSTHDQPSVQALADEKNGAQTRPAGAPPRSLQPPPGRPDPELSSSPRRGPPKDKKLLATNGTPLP", "experimental": "as §1"}, "CDK2-Cyclin A": {"target": "CDK2-Cyclin A (Homo sapiens, UniProt P24941)", "experimental": "as §1"}, "CHK1": {"target": "CHK1 (Homo sapiens, UniProt O14757)", "experimental": "as §1"}, "CHK2": {"target": "CHK2 (Homo sapiens, UniProt O96017)", "experimental": "as §1"}, "DYRK1A": {"target": "DYRK1A (Homo sapiens, UniProt Q13627)", "experimental": "as §1"}, "EIF2AK3": {"target": "EIF2AK3 (Homo sapiens, UniProt Q9NZJ5)", "experimental": "as §1"}, "GCK": {"target": "GCK (Homo sapiens, UniProt Q12851)", "experimental": "as §1"}, "IKKb": {"target": "T1, IKKb (Homo sapiens, UniProt O14920)", "T1 sequence (O14920 1-756)": "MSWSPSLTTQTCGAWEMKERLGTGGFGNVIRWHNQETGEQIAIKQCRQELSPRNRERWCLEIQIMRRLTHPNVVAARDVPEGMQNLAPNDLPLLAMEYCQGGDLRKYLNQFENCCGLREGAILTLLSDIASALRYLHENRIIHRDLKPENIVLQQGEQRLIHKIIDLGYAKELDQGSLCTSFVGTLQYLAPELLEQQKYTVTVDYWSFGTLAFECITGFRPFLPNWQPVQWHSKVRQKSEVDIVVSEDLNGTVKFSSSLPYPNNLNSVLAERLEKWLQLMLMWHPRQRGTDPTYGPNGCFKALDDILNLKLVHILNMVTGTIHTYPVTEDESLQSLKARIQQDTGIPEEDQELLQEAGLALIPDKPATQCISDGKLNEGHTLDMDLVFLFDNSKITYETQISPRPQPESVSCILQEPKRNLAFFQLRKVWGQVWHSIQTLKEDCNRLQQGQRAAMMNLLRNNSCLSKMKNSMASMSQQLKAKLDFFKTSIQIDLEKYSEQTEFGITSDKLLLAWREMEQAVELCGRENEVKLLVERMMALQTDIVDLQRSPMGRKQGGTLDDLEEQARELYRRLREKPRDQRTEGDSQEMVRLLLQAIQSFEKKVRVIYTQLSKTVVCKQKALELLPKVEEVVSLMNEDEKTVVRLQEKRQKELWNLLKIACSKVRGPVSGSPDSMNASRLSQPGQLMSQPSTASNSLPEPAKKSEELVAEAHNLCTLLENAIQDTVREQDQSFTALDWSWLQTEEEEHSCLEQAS", "experimental": "as §1"}, "IRAK1": {"target": "IRAK1 (Homo sapiens, UniProt P51617)", "sequence (P51617 whole entry)": "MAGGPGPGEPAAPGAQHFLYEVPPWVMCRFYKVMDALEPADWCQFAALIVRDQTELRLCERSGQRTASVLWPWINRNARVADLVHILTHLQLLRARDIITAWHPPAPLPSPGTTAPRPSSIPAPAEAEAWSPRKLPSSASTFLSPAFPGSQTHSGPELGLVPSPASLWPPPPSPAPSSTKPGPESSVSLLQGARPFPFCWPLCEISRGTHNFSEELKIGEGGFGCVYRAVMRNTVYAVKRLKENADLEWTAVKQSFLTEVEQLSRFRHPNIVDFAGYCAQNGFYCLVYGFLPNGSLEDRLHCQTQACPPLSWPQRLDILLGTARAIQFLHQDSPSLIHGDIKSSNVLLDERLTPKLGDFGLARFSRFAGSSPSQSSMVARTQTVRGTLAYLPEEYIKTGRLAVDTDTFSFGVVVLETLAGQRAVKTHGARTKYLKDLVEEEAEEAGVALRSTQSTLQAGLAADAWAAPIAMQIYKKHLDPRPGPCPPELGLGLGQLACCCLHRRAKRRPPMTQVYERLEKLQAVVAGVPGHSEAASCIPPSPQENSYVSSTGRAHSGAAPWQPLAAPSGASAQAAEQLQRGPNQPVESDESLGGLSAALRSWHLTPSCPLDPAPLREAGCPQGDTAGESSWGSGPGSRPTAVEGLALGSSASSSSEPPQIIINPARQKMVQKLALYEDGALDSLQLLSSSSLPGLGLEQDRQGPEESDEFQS", "experimental": "as §1"}, "Lck": {"target": "Lck (Homo sapiens, UniProt P06239)", "experimental": "as §1"}, "MAP4K3": {"target": "MAP4K3 (Homo sapiens, UniProt Q8IVH8)", "experimental": "as §1"}, "MAPKAP-K2": {"target": "MAPKAP-K2 (Homo sapiens, UniProt P49137)", "experimental": "as §1"}, "MKK6": {"target": "MKK6 (Homo sapiens, UniProt P52564)", "experimental": "as §1"}, "MNK1": {"target": "MNK1 (Homo sapiens, UniProt Q9BUB5)", "experimental": "as §1"}, "MST2": {"target": "MST2 (Homo sapiens, UniProt Q13188)", "experimental": "as §1"}, "PAK4": {"target": "PAK4 (Homo sapiens, UniProt O96013)", "experimental": "as §1"}, "PDK1": {"target": "PDK1 (Homo sapiens, UniProt O15530)", "experimental": "as §1"}, "PIM3": {"target": "PIM3 (Homo sapiens, UniProt Q86V86)", "experimental": "as §1"}, "PINK": {"target": "PINK (Tribolium castaneum, UniProt D6WMX4)", "experimental": "as §1"}, "PKCγ": {"target": "PKCγ (Homo sapiens, UniProt P05129)", "experimental": "as §1"}, "PKD1": {"target": "PKD1 (Homo sapiens, UniProt Q15139)", "experimental": "as §1"}, "PLK1": {"target": "PLK1 (Homo sapiens, UniProt P53350)", "experimental": "as §1"}, "PRAK": {"target": "PRAK (Homo sapiens, UniProt Q8IW41)", "experimental": "as §1"}, "SYK": {"target": "SYK (Homo sapiens, UniProt P43405)", "experimental": "as §1"}, "SmMLCK": {"target": "SmMLCK (Homo sapiens, UniProt Q15746)", "experimental": "as §1"}, "TAO1": {"target": "TAO1 (Homo sapiens, UniProt Q7L7X3)", "experimental": "as §1"}, "TLK1": {"target": "TLK1 (Homo sapiens, UniProt Q9UKI8)", "sequence (Q9UKI8 whole entry)": "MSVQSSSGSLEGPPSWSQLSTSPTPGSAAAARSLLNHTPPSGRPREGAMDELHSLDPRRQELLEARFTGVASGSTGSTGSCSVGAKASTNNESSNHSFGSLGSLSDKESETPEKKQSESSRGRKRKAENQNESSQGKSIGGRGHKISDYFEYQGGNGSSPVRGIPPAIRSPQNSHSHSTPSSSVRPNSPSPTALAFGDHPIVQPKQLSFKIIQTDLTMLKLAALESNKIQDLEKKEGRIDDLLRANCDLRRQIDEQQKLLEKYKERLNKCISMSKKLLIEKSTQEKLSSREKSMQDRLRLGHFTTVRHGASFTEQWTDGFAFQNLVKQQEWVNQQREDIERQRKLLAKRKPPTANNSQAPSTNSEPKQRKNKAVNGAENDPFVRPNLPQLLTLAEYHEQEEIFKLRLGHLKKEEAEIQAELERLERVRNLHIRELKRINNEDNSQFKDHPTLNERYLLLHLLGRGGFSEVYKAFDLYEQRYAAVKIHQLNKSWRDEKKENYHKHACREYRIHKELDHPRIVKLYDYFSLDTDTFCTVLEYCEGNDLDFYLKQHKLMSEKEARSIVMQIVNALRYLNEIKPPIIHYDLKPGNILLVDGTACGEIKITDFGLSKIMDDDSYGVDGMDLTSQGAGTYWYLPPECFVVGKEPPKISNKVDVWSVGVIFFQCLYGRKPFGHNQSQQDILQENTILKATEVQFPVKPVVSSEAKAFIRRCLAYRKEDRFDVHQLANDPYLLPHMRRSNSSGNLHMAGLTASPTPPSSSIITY", "experimental": "as §1"}, "WNK1": {"target": "WNK1 (Homo sapiens, UniProt Q9H4A3)", "sequence (Q9H4A3 whole entry)": "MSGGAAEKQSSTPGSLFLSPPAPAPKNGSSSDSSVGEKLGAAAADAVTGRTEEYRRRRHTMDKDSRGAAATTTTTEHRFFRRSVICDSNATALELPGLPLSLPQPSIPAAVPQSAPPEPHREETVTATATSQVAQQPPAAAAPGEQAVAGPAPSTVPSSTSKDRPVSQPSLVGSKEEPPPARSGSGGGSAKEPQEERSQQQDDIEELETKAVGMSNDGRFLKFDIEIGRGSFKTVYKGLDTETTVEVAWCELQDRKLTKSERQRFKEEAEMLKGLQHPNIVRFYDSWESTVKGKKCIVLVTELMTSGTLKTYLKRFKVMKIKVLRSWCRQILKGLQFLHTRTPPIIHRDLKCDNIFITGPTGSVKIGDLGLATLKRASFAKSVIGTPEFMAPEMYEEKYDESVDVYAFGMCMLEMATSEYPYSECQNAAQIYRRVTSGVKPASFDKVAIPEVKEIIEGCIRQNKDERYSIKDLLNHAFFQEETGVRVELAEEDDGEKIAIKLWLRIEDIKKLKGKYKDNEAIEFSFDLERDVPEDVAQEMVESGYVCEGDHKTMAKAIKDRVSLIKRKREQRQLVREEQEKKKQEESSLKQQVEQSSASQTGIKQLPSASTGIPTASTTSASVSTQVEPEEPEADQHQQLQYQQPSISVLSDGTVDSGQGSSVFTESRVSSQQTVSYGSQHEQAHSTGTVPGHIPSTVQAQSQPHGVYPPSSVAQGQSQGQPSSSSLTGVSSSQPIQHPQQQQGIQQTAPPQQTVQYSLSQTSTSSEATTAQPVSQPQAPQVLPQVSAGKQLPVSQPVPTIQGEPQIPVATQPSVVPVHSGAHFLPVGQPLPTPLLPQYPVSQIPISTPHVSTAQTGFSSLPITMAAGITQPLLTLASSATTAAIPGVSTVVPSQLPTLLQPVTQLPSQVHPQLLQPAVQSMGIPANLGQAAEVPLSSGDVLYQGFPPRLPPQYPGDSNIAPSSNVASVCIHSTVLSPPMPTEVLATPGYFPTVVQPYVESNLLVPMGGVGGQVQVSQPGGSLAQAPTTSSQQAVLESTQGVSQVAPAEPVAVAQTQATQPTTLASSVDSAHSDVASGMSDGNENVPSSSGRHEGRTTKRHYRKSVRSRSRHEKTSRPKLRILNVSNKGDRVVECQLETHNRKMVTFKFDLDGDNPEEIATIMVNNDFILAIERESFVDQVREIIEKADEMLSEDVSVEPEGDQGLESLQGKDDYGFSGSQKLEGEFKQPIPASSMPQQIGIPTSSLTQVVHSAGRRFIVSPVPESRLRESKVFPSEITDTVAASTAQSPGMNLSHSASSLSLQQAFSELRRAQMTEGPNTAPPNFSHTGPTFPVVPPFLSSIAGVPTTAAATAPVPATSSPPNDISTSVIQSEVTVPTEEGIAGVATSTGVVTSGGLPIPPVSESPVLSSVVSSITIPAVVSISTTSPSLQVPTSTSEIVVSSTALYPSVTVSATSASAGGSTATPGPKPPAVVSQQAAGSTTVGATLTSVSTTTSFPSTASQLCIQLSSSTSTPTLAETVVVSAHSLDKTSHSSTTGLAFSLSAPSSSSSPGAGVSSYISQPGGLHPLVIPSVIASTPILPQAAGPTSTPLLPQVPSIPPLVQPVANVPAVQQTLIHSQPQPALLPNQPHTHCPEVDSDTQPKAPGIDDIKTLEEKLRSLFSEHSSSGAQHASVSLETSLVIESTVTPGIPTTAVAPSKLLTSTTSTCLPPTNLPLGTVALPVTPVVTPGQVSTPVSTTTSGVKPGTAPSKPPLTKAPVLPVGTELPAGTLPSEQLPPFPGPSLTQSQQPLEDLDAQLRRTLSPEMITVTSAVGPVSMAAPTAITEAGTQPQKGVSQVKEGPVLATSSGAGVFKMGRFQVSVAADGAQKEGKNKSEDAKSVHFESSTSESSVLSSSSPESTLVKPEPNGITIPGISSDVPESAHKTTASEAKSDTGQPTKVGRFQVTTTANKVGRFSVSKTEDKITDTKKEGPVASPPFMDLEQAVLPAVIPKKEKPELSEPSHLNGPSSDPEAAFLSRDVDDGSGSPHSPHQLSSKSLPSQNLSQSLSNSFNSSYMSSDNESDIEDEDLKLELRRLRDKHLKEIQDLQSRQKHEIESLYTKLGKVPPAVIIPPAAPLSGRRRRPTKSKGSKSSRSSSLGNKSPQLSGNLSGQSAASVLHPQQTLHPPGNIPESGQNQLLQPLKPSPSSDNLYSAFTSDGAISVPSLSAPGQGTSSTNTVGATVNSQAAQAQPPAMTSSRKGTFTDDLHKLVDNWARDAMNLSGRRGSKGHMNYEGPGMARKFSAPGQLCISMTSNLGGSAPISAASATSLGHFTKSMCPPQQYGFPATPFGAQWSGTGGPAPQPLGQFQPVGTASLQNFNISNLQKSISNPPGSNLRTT", "experimental": "as §1"}, "p38d MAPK": {"target": "p38d MAPK (Homo sapiens, UniProt O15264)", "experimental": "as §1"}, "[1]": {"settings": "1 μM, cross-referenced with screen data of ref 37, read-out: activity remaining after treatment"}}}
{"smiles": "CC1=C(C#N)C(c2ccc3c(c2)c(NC(=O)c2ccccc2C)nn3C)C(C#N)=C(C)N1", "note": "[BAY-974, N-[5-(3,5-dicyano-2,6-dimethyl-1,4-dihydropyridin-4-yl)-1-methylindazol-3-yl]-2-methylbenzamide]", "values": [{"measurement": "remaining activity at 0.1 µM", "setting": "Aurora A", "value": 79, "unit": "%"}, {"measurement": "remaining activity at 0.1 µM", "setting": "BRSK1", "value": 96, "unit": "%"}, {"measurement": "remaining activity at 0.1 µM", "setting": "CDK2-Cyclin A", "value": 96, "unit": "%"}, {"measurement": "remaining activity at 0.1 µM", "setting": "CHK1", "value": 78, "unit": "%"}, {"measurement": "remaining activity at 0.1 µM", "setting": "CHK2", "value": 87, "unit": "%"}, {"measurement": "remaining activity at 0.1 µM", "setting": "DYRK1A", "value": 101, "unit": "%"}, {"measurement": "remaining activity at 0.1 µM", "setting": "EIF2AK3", "value": 113, "unit": "%"}, {"measurement": "remaining activity at 0.1 µM", "setting": "GCK", "value": 65, "unit": "%"}, {"measurement": "remaining activity at 0.1 µM", "setting": "IKKb", "value": 89, "unit": "%"}, {"measurement": "inhibition at 0.1 µM", "setting": "IRAK1", "value": "55 to 90", "unit": "%"}, {"measurement": "remaining activity at 0.1 µM", "setting": "Lck", "value": 58, "unit": "%"}, {"measurement": "remaining activity at 0.1 µM", "setting": "MAP4K3", "value": 73, "unit": "%"}, {"measurement": "remaining activity at 0.1 µM", "setting": "MAPKAP-K2", "value": 84, "unit": "%"}, {"measurement": "remaining activity at 0.1 µM", "setting": "MKK6", "value": 94, "unit": "%"}, {"measurement": "remaining activity at 0.1 µM", "setting": "MNK1", "value": 100, "unit": "%"}, {"measurement": "remaining activity at 0.1 µM", "setting": "MST2", "value": 94, "unit": "%"}, {"measurement": "remaining activity at 0.1 µM", "setting": "PAK4", "value": 96, "unit": "%"}, {"measurement": "remaining activity at 0.1 µM", "setting": "PDK1", "value": 85, "unit": "%"}, {"measurement": "remaining activity at 0.1 µM", "setting": "PIM3", "value": 125, "unit": "%"}, {"measurement": "remaining activity at 0.1 µM", "setting": "PINK", "value": 95, "unit": "%"}, {"measurement": "remaining activity at 0.1 µM", "setting": "PKCγ", "value": 115, "unit": "%"}, {"measurement": "remaining activity at 0.1 µM", "setting": "PKD1", "value": 84, "unit": "%"}, {"measurement": "remaining activity at 0.1 µM", "setting": "PLK1", "value": 105, "unit": "%"}, {"measurement": "remaining activity at 0.1 µM", "setting": "PRAK", "value": 107, "unit": "%"}, {"measurement": "inhibition at 0.1 µM", "setting": "SYK", "value": "55 to 90", "unit": "%"}, {"measurement": "remaining activity at 0.1 µM", "setting": "SmMLCK", "value": 80, "unit": "%"}, {"measurement": "remaining activity at 0.1 µM", "setting": "TAO1", "value": 88, "unit": "%"}, {"measurement": "remaining activity at 0.1 µM", "setting": "TLK1", "value": 100, "unit": "%"}, {"measurement": "remaining activity at 0.1 µM", "setting": "WNK1", "value": 117, "unit": "%"}, {"measurement": "remaining activity at 0.1 µM", "setting": "p38d MAPK", "value": 108, "unit": "%"}]}
{"smiles": "CCc1ccccc1C(=O)Nc1n[nH]c2c(C)c(F)c(C3C(C#N)=C(C)N(C)C(C)=C3C#N)cc12", "note": "[BAY-3827, N-[5-(3,5-dicyano-1,2,6-trimethyl-4H-pyridin-4-yl)-6-fluoro-7-methyl-1H-indazol-3-yl]-2-ethylbenzamide]", "values": [{"measurement": "remaining activity at 0.1 µM", "setting": "Aurora A", "value": 90, "unit": "%"}, {"measurement": "remaining activity at 0.1 µM", "setting": "BRSK1", "value": 77, "unit": "%"}, {"measurement": "remaining activity at 0.1 µM", "setting": "CDK2-Cyclin A", "value": 99, "unit": "%"}, {"measurement": "remaining activity at 1 µM", "setting": "CDK2-Cyclin A; 1 μM, CDK2, cross-referenced with screen data of ref 37, read-out: activity remaining after treatment", "value": "≥ 99", "unit": "%"}, {"measurement": "remaining activity at 0.1 µM", "setting": "CHK1", "value": 66, "unit": "%"}, {"measurement": "remaining activity at 0.1 µM", "setting": "CHK2", "value": 93, "unit": "%"}, {"measurement": "remaining activity at 0.1 µM", "setting": "DYRK1A", "value": 96, "unit": "%"}, {"measurement": "remaining activity at 0.1 µM", "setting": "EIF2AK3", "value": 98, "unit": "%"}, {"measurement": "remaining activity at 0.1 µM", "setting": "GCK", "value": 105, "unit": "%"}, {"measurement": "remaining activity at 0.1 µM", "setting": "IKKb", "value": 105, "unit": "%"}, {"measurement": "remaining activity at 1 µM", "setting": "IKKb; 1 μM, IKKβ, cross-referenced with screen data of ref 37, read-out: activity remaining after treatment", "value": "≥ 99", "unit": "%"}, {"measurement": "inhibition at 0.1 µM", "setting": "IRAK1", "value": "~60", "unit": "%"}, {"measurement": "remaining activity at 0.1 µM", "setting": "IRAK1", "value": "≤ 50", "unit": "%"}, {"measurement": "remaining activity at 0.1 µM", "setting": "Lck", "value": 93, "unit": "%"}, {"measurement": "remaining activity at 0.1 µM", "setting": "MAP4K3", "value": 82, "unit": "%"}, {"measurement": "remaining activity at 0.1 µM", "setting": "MAPKAP-K2", "value": 82, "unit": "%"}, {"measurement": "remaining activity at 0.1 µM", "setting": "MKK6", "value": 101, "unit": "%"}, {"measurement": "remaining activity at 0.1 µM", "setting": "MNK1", "value": 126, "unit": "%"}, {"measurement": "remaining activity at 0.1 µM", "setting": "MST2", "value": 85, "unit": "%"}, {"measurement": "remaining activity at 0.1 µM", "setting": "PAK4", "value": 80, "unit": "%"}, {"measurement": "remaining activity at 0.1 µM", "setting": "PDK1", "value": 83, "unit": "%"}, {"measurement": "remaining activity at 0.1 µM", "setting": "PIM3", "value": 101, "unit": "%"}, {"measurement": "remaining activity at 1 µM", "setting": "PIM3; [1]", "value": "≥ 99", "unit": "%"}, {"measurement": "remaining activity at 0.1 µM", "setting": "PINK", "value": 90, "unit": "%"}, {"measurement": "remaining activity at 0.1 µM", "setting": "PKCγ", "value": 94, "unit": "%"}, {"measurement": "remaining activity at 0.1 µM", "setting": "PKD1", "value": 100, "unit": "%"}, {"measurement": "remaining activity at 0.1 µM", "setting": "PLK1", "value": 97, "unit": "%"}, {"measurement": "remaining activity at 0.1 µM", "setting": "PRAK", "value": 101, "unit": "%"}, {"measurement": "remaining activity at 0.1 µM", "setting": "SYK", "value": 91, "unit": "%"}, {"measurement": "remaining activity at 0.1 µM", "setting": "SmMLCK", "value": 76, "unit": "%"}, {"measurement": "remaining activity at 0.1 µM", "setting": "TAO1", "value": 94, "unit": "%"}, {"measurement": "remaining activity at 0.1 µM", "setting": "TLK1", "value": 118, "unit": "%"}, {"measurement": "remaining activity at 0.1 µM", "setting": "WNK1", "value": 101, "unit": "%"}, {"measurement": "remaining activity at 1 µM", "setting": "WNK1; [1]", "value": "≥ 99", "unit": "%"}, {"measurement": "remaining activity at 0.1 µM", "setting": "p38d MAPK", "value": 99, "unit": "%"}]}
